The numbers were not newly measured in publication PMC4457528, “Identification of Novel Small Molecule Inhibitors of Oncogenic RET Kinase” (PLoS ONE, 2015), which cites them from elsewhere.

Series [1] concerns RET and its gate-keeper mutants. The settings on record: cited from earlier work.
A further series relates to RET Y806C. The arrangement: method as in PMID 15184865, PMID 19029224. The conditions noted are these: cited from earlier work.

Molecules are shown by their SMILES.

As for `Cc1ccc(C(=O)Nc2ccc(CN3CCN(C)CC3)c(C(F)(F)F)c2)cc1C#Cc1cnc2cccnn12` [ponatinib], the “inhibition of RET and its gate-keeper mutants” value in series [1] was “potently inhibits”.

Take `COc1cc2c(Nc3ccc(Br)cc3F)ncnc2cc1OCC1CCN(C)CC1` [vandetanib]: the “fold increase of in vitro IC50 dose for RET by Y806C” value in the series on RET Y806C is recorded as 10 fold.
